Data published in patent US20140296143A1, “Angiotensin-(1-7) As A Chemoprevention Agent” (Wake Forest Innovations, priority 2008, published 2014).

Key:
[1] = tested on: A549 human lung tumor xenografts; test: A549 human lung tumor xenograft in athymic mice, intravenous infusion; type: in vivo, mouse
Experimental: (§1) For reverse-transcriptase real-time PCR, RNA was isolated from cells or tissue, using the TRIzol reagent (GIBCO Invitrogen Corp., Carlsbad, Calif.), as directed by the manufacturer. The RNA concentration and integrity were assessed using an Agilent 2100 Bioanalyzer with an RNA 6000 nano LabChip (Agilent Technologies, Palo Alto, Calif.). Approximately 1 μg of total RNA was reverse transcribed using avian myeloblastosis virus reverse transcriptase (RT) in a 20 μL mixture containing deoxyribonucleotides, random hexamers and RNase inhibitor in RT buffer. Heating the RT reaction product at 95° C. terminated the reaction. For real-time polymerase chain reaction (PCR), 2 μL of the resultant cDNA was added to TaqMan Universal PCR Master Mix (Applied Biosystems, Foster City, Calif.) with a gene-specific primer/probe set (Applied Biosystems, Foster City, Calif.) and amplification was performed on an ABI 7000 Sequence Detection System. The mixtures were heated at 50° C. for 2 min, at 95° C. for 10 min followed by 40 cycles at 95° C. for 15 sec and 60° C. for 1 min. All reactions were performed in triplicate and 18S ribosomal RNA, amplified using the TaqMan Ribosomal RNA Control Kit (Applied Biosystems), served as an internal control. The results were quantified as Ct values, where Ct is defined as the threshold cycle of PCR at which amplified product is first detected, and expressed as the ratio of target/control (Relative Gene Expression).
Quiescent A549 lung cancer cells or tumor tissue cut into approximately 1-2 mm^2 size pieces were homogenized in phosphate-buffered saline (PBS; 50 mM NaPO4, pH=7.2, 100 mM NaCl). Plasma membranes were isolated by centrifugation and solubilized by boiling in 3% SDS-10% B-mercaptoethanol. PBS was added to the membrane fraction to solubilize the proteins. The protein concentration was measured by a modification of the Lowry method. Solubilized protein (20 μg/well) from saline- and Ang-(1-7)-treated animals were separated by SDS-polyacrylamide gel electrophoresis and transferred to polyvinyl membranes (Amersham Pharmacia, Piscataway, N.J.). Non-specific binding was blocked with 5% blotto (5% evaporated milk, 0.1% Triton X-100 in Tris-buffered saline (TBS; 50 mM Tris-HCl, pH 7.4, 50 mM NaCl). The membranes were incubated with a COX-2 antibody (1:1000; Cayman Chemicals, Ann Arbor, Mich.) followed by a goat anti-rabbit antibody (1:1000; Amersham, Piscataway, N.J.) coupled to horseradish peroxidase. Chemiluminescence reagents were added to visualize the immunoreactive bands, which were quantified by densitometry. An antibody to actin (Sigma, St Louis, Mo.) served as the loading control.
Male or female athymic mice (15-20 g, 2-4 weeks of age, Charles River Laboratory, Wilmington, Mass.) were housed in cages with HEPA-filtered air (12-hour light/dark cycle) and ad libitum access to food and autoclaved water. All procedures complied with the policies of the Wake Forest University Animal Care and Use Committee. Mice were inoculated subcutaneously in the lower left flank with approximately 1.9×10^6 A549 lung cancer cells or ZR-75-1 breast cancer cells suspended in 200 μL of cold Matrigel (BD Biosciences, Bedford, Mass.). […] The mice were anesthetized by inhalation with 1.5% isoflurane. […] The minipumps also contained heparin (25 U/mL) to maintain patency of the catheter. On day 28 of the infusion, the animals were anesthetized with halothane and sacrificed by decapitation. Alternatively, the mice received daily subcutaneous injections of Ang-(1-7) in saline or saline alone.
Tumors were fixed with 4% paraformaldehyde for 24 h and incubated in 70% ethanol for 48 h prior to embedding in paraffin. The embedded tumors were cut into five micron thick sections and stained with hematoxylin and eosin to determine morphology. […]

COX-2 = COX-2 protein (Western blot) and mRNA (RT real-time PCR) in A549 cells; type: cell-based, human
Experimental: as §1, with “The mixtures were heated at 50° C. for 2 min, at 95° C. for 10 min followed by 40 cycles at 95° C. for 15 sec and 60° C. for 1 min. All reactions were performed in triplicate and 18S ribosomal RNA, amplified using the TaqMan Ribosomal RNA Control Kit (Applied Biosystems), served as an internal control.” left out
Quiescent A549 lung cancer cells or tumor tissue cut into approximately 1-2 mm^2 size pieces were homogenized in phosphate-buffered saline (PBS; 50 mM NaPO4, pH=7.2, 100 mM NaCl). […] The protein concentration was measured by a modification of the Lowry method. […]

[2] = tested on: A549 human lung cancer cells; test: Hoechst 33342 staining for morphological features of apoptosis; type: cell-based; conditions: 100 nM, 4 h
Source text: In one experiment, A549 human lung cancer cells were stained with Hoechst 33342 to visualize the morphological changes associated with apoptosis.

ERK1 = conditions: SK-LU-1, 10 nM pretreatment; Gallagher et al., 2004; cited from earlier work
cellular levels of cAMP = conditions: 1 μM, in the presence of 1 mM IBMX; n=3; U.S. Pat. No. 7,375,075; cited from earlier work
[3] = 24 μg/kg/h intravenous, 28 days, versus saline
[4] = 28 days infusion, versus saline

## CC[C@H](C)[C@H](NC(=O)[C@H](Cc1ccc(O)cc1)NC(=O)[C@@H](NC(=O)[C@H](CCCNC(=N)N)NC(=O)[C@@H](N)CC(=O)O)C(C)C)C(=O)N[C@@H](Cc1c[nH]cn1)C(=O)N1CCC[C@H]1C(=O)O [Ang-(1-7), Asp-Arg-Val-Tyr-Ile-His-Pro]
[1]; [3]
  capsular vessel number: no difference
  down-regulation in VEGF mRNA in tumor tissue: greater than 50%
  reduction in intratumoral vessel formation: > 75%
[1]; 24 μg/kg/h intravenous, day 28, n=5, saline 326.3±47.2
  average tumor volume at end of infusion: 84.4±19.8 mm^3
[1]; 24 μg/kg/h, 28 days
  body weight, food and water consumption during infusion: maintained their body weight as well as food and water consumption
  gross pathology of major organs following sacrifice: no gross pathological abnormalities
[1]; [4]
  APAF mRNA in tumor tissue: significant increase
  caspase 3 mRNA in tumor tissue: significant increase
[1]; Western blot of tumor tissue, n=5, saline 0.99±0.12
  COX-2 protein, density of COX-2 immunoreactivity as a function of actin: 0.41±0.09
[1]; at sacrifice, day 28
  tumor weight less than saline-infused: 50%
[1]; at sacrifice, day 28, n=5, saline 0.28±0.03
  tumor weight: 0.13 ± 0.01 g
[1]; intravenous infusion, n=4-5, saline 18.8±9.4%
  proportion of apoptotic nuclei (cleaved caspase 3): 75±4.6%
[1]; n=5, saline 73±[…]
  proportion of proliferating cells (Ki67): 49.5±9.4%
[1]; tumor tissue, versus saline
  reduction of COX-2 protein: 59%
[1]; tumor xenografts, RT real-time PCR, versus saline
  decrease in COX-2 mRNA: 57%
COX-2; 100 nM, 2, 4 and 8 h
  COX-2 mRNA: significant reduction
COX-2; 100 nM, 8-h treatment
  COX-2 protein: marked decrease
[2]
  morphological changes (Hoechst 33342): typical morphological changes associated with stimulation of apoptosis
ERK1
  reduction of serum-stimulated phosphorylation of ERK1: 61%
Cellular levels of cAMP
  cellular levels of cAMP: 131.9±9.7 % of basal
